Source: patent US9574239B2, “MicroRNA signatures in human ovarian cancer” (The Ohio State University Research Foundation, priority 2007, dated 2017)

How the values were obtained:
Type in all cases: cell-based, human
OVCAR3 cells [1] = test: Northern blot of miR-21 in OVCAR3 cells after demethylating treatment; settings: OVCAR3, before vs after treatment; FIG. 5D
Procedure: Northern blot analysis was performed as previously described. RNA samples (10 μg each) were run on 15% Polyacrylamide, 7M Urea Criterion pre-casted gels (Bio-Rad, Hercules, Calif.) and transferred onto Hybond-N+ membranes (Amersham, Piscataway, N.J.). The hybridization was performed at 370 C in ULTRAhyb-Oligo hybrization buffer (Ambion, Austin, Tex.) for 16 hours. Membranes were washed at 370 C, twice with 2×SSPE and 0.5% SDS. 5S RNA or EtBr gel staining were used to normalize 200 ng of each probe was end labeled with 100 μCi [gamma-32P]-ATP using the polynucleotide kinase (Roche). Blots were stripped in boiling 0.1% SDS for 10 minutes before re-hybridization. OVCAR3 cells were seeded at low density 48 h before treatment with 10 μM 5′aza-2′deoxycytidine (5′-AZA, Sigma). After 24 h of treatment, cells were collected and total RNA was isolated using Trizol reagent (Invitrogen).

OVCAR3 cells [2] = test: miR expression by microarray profiling of OVCAR3 cells before and after demethylating treatment; settings: 10 μM, 24 h
Procedure: Total RNA isolation was performed with Trizol (Invitrogen, Carlsbad, Calif.) according to the manufacturer's instructions. RNA labeling and hybridization on microRNA microarray chips were performed as previously described (28) using 5 μg of total RNA from each sample. Hybridization was carried out on our microRNA microarray (Ohio State Comprehensive Cancer Center, version 2.0), which contains probes for 460 mature microRNAs spotted in quadruplicate (235 homo sapiens, 222 mus musculus, and three Arabidopsis thaliana) with annotated active sites. Often, more than one probe set exists for a given mature microRNA. Additionally, there are quadruplicate probes corresponding to most precursor microRNAs. Hybridization signals were detected with Streptavidin-Alexa647 conjugate and scanned images (Axon 4000B) were quantified using the Genepix 6.0 software (Axon Instruments, Sunnyvale, Calif.).
Microarray images were analyzed by using GENEPIX PRO. Average values of the replicate spots of each miRNA were background subtracted, normalized, and subjected to further analysis. We performed a global median normalization of Ovary microarray data by using BRB ArrayTools developed by Richard Simon & Amy Peng Lam (29). Absent calls were thresholded to 4.5 before subsequent statistical analysis. This level is the average minimum intensity level detected in the experiments. miRNA nomenclature was according to the Genome Browser (genome.ucsc.edu) and the miRNA database at Sanger Center (microrna.sanger.ac.uk/); in case of discrepancies the miRNA database was followed. Differentially expressed miRNAs were identified by using the t test procedure within significance analysis of microarrays (SAM), a method developed at Stanford University Labs based on recent paper of Tusher, Tibshirani and Chu (30).
OVCAR3 cells were seeded at low density 48 h before treatment with 10 μM 5′aza-2′deoxycytidine (5′-AZA, Sigma). After 24 h of treatment, cells were collected and total RNA was isolated using Trizol reagent (Invitrogen). 3 replicates for both untreated cells and AZA-treated cells were used to evaluate the miR expression by Microarray profiling. Differentially expressed microRNAs were identified by using univariate two-classes T-test with random variance model.

OVCAR3 cells [3] = test: Real-Time PCR of miR expression levels in OVCAR3 cells after demethylating treatment; settings: OVCAR3, before vs after treatment; FIG. 5C
Procedure: Relative expression was calculated using the comparative Ct method.

[4] = OVCAR3, before vs after treatment, p<0.001

Nc1ncn([C@H]2C[C@H](O)[C@@H](CO)O2)c(=O)n1 [5-aza-2′-deoxycytidine]
miR-21 expression (Northern Blot, normalized with EtBr gel staining) (OVCAR3 cells [1]): up-modulation
expression of miR-21, miR-203, miR-146b, miR-205, miR-30-5p and miR-30c (OVCAR3 cells [2]; OVCAR3, before vs after treatment): most significant induced upon treatment
human microRNAs differentially expressed (number) (OVCAR3 cells [2]; [4]): 11
human microRNAs down-modulated (number) (OVCAR3 cells [2]; [4]): 2
human microRNAs up-modulated (number) (OVCAR3 cells [2]; [4]): 9
levels of miR-21, miR-203 and miR-205 after demethylating treatment (OVCAR3 cells [2]; OVCAR3 cells): significantly increased
expression levels of the 5 most significantly induced miRs (Real-Time PCR) (OVCAR3 cells [3]): up-modulation
